# In US7964221B2, “Composition and methods of use of an immunomodulator” (priority 2006, dated 2011):
# Legend:
# [1] = system: CD4 cells; assay: 32-week three-arm trial in HIV-infected individuals: CD4 cell counts; format: in vivo, human; conditions: for Change in CD4 cell counts from baseline: OT analysis
# Source text: (§1) All participants were antiretroviral drug naive.
# (§2) Laboratory abnormalities were graded.
# [2] = 32-week three-arm HIV trial: body weight; format: in vivo, human
# Source text: as §1, §2
substance,measurement,setting,value
"zidovudine (AZT), lamividine (3TC), and efavirenz (EFV) [AZT/3TC/EFV]",Change in CD4 cell counts from baseline,[1]; 12 weeks of treatment,+122 cells/mm^3
same,Change in CD4 cell counts from baseline,[1]; 20 weeks,+108 cells/mm^3
same,Change in CD4 cell counts from baseline,[1]; 32 weeks,+102 cells/mm^3
same,CD4 counts After,[1]; after therapy,463
same,CD4 counts Before,[1]; before therapy (baseline),361
same,Body weight After,[2]; after therapy,65.6
same,Mean values for baseline body weight,"[2]; baseline, mean ± SD",64.2 ± 8.9 kg
same,Body weight Before,[2]; before therapy,64.2
same,Mean weight values at the end of study,[2]; end of study,65.6 ± 7.3 kg
same,Average weight gain,[2]; week 32,1.4 kg
